Assay results as given in US20250135006A1, “AMPHIPHILIC TLR7/8 ADJUVANTS AND USES THEREOF” (Pfizer Inc., priority 2023, published 2025).

What was measured:
[1] = target: T1, human toll like receptor 7 (hTLR7) (Homo sapiens, UniProt Q9NYK1); assay: hTLR7 in-vitro functional assay (HEK-Blue hTLR7 SEAP reporter); format: cell-based; details: HEK-Blue hTLR7 cells, overnight incubation
T1 construct: host or cells: HEK293 (HEK-Blue hTLR7)
T1 sequence (Q9NYK1 27-1049): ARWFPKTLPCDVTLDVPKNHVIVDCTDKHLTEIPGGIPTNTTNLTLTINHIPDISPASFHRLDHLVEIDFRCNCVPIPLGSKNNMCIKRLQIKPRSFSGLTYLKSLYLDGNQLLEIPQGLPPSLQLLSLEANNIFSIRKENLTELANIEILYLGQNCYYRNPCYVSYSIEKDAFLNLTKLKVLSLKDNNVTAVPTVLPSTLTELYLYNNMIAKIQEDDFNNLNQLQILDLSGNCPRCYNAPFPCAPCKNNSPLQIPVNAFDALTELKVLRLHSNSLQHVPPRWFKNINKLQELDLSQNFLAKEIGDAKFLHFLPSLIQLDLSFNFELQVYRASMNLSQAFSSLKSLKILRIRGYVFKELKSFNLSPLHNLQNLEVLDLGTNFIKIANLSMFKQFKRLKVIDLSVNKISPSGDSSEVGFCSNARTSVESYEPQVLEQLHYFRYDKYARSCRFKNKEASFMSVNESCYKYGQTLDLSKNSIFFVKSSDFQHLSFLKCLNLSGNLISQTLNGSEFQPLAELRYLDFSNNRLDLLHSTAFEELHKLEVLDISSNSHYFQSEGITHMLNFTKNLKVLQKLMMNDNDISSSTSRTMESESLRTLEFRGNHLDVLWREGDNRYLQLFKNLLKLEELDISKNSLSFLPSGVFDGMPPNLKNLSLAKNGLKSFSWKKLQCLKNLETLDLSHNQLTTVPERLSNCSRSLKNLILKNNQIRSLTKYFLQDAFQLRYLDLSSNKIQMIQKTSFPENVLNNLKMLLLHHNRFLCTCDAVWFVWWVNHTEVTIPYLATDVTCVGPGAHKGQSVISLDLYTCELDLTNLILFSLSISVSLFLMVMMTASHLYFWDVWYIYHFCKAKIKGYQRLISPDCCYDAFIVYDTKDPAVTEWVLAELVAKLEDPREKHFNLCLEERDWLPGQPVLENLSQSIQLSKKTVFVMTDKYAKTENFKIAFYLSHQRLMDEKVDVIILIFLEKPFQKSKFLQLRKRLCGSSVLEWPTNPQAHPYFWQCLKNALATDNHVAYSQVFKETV
Source text: (§1) To determine the ability of test compounds to activate the human toll like receptor 7 (hTLR7) or human toll like receptor 8 (hTLR8), cell-based reporter systems were utilized. HEK293 cells stably overexpressing either hTLR7 or hTLR8 along with a reporter gene containing an optimized secreted embryonic alkaline phosphatase gene (SEAP), under the control of the IFN-b minimal promoter fused to five NF-kB and AP-1-binding sites, were obtained from Invivogen (HEK-Blue™ hTLR7, cat #Hkb-htlr7; HEK-Blue™ hTLR8, cat #Hkb-htlr8). Stimulation of hTLR7 or hTLR8 in these cells activates NF-kB and AP-1 and induces the production of SEAP which can be quantified using an alkaline phosphatase detection reagent.
(§2) On day one of the assay, compounds were prepared using 11-point half-log serial dilutions from a 10 mM DMSO stock solution and 50 nL was spotted into 384-well plates (PerkinElmer, cat #6007480). Positive and negative controls were also spotted within the assay plate and were used to determine percent effect during the analysis process. After resuspension in DMEM assay media containing FBS heat inactivated (10%), Glutamax (2 mM) and Penicillin/Streptomycin, 10,000 cells/20 ul/well were added to previously prepared compound plates. Plates were incubated overnight (16-20 hrs) at 37° C. in a 5% CO2 environment. Prewetted Microclime lids (Labcyte, LLS-0310) were used to prevent evaporation. On day two of the assay, QUANTI-Blue™ detection reagent was prepared by reconstituting QUANTI-Blue™ powder (InvivoGen, Rep-qb1) with 100 ml of sterile water and allowed to equilibrate to 37° C. for 15 minutes. 20 ul of QUANTI-Blue™ detection reagent was added to each well and plates were incubated at room temperature for 180 min. At the end of the incubation, plates were read on an Envision (Perkin Elmer) plate reader capturing absorbance at 650 nm.
(§3) Using Positive (tool compound) and Negative (DMSO) controls, the percent (%) effect was calculated for each sample using the following equation: […]
(§4) The % effect at each concentration of compound was calculated utilizing the ABase software suite (IBDS) and was relative to the amount of SEAP produced in the positive and negative control wells contained within each assay plate. The concentrations and % effect values for test compounds were fit using a 4-parameter logistic model in ABase and the concentration of compound that produced 50% response (EC50) was calculated.

[2] = target: T2, human toll like receptor 8 (hTLR8) (Homo sapiens, UniProt Q9NR97); assay: hTLR8 in-vitro functional assay (HEK-Blue hTLR8 SEAP reporter); format: cell-based; details: HEK-Blue hTLR8 cells, overnight incubation
T2 construct: host or cells: HEK293 (HEK-Blue hTLR8)
T2 sequence (Q9NR97 27-1041): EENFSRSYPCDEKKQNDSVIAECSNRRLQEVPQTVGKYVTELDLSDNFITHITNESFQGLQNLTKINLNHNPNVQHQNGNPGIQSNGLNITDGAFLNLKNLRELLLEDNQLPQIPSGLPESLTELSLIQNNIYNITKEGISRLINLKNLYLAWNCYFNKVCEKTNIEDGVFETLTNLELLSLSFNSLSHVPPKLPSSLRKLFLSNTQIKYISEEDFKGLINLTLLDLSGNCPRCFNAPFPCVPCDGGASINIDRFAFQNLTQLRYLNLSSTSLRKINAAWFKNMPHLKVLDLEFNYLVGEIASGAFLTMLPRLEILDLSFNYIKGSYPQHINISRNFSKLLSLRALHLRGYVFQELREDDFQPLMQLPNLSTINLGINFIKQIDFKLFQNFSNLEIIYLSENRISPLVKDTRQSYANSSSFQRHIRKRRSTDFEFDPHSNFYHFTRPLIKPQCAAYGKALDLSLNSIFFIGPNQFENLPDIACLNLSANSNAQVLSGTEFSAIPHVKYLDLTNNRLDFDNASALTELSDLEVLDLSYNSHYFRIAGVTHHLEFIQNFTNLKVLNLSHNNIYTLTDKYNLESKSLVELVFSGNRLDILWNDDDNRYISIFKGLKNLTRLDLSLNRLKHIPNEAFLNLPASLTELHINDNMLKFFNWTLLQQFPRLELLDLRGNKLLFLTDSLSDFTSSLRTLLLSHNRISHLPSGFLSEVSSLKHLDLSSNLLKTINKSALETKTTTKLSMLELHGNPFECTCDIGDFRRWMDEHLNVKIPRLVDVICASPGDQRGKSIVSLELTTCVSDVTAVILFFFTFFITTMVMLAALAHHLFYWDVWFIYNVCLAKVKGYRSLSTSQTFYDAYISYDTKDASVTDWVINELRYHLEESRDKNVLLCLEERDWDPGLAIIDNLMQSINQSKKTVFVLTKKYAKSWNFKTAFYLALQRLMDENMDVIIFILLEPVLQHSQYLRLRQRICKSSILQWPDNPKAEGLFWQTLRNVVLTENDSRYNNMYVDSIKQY
Source text: as §1, §2, §3, §4

EC50 [1]	EC50 [2]	Compound
53 nM	339 nM	CCCCc1nc2c(N)nc3cc(CCCN4CCN(C(=O)CCOCCOCCOCCOCCOCCOCCOCCOCCOCCOCCOCCOCCOCCOCCOCCOCCOCCOCCOCCOCCOCCOCCOCCOCCOCCOCCOCCOCCOCCOCCOCCOCCOCCOCCOCCOCCNC(=O)CCOCCOCCOCCOCCNC(=O)O[C@H]5CC[C@@]6(C)C(=CC[C@H]7[C@@H]8CC[C@H]([C@H](C)CCCC(C)C)[C@@]8(C)CC[C@@H]76)C5)CC4)ccc3c2n1CC(C)(CO)CO [Compound 3, (3beta)-cholest-5-en-3-yl {127-[4-(3-{4-amino-2-butyl-1-[3-hydroxy-2-(hydroxymethyl)-2-methylpropyl]-1H-imidazo[4,5-c]quinolin-7-yl}propyl)piperazin-1-yl]-15,127-dioxo-3,6,9,12,19,22,25,28,31,34,37,40,43,46,49,52,55,58,61,64,67,70,73,76,79,82,85,88,91,94,97,100,103,106,109,112,115,118,121,124-tetracontaoxa-16-azaheptacosahect-1-yl}carbamate]
60 nM	1750 nM	CCOCc1nc2c(N)nc3cc(CCCN4CCN(C(=O)CCOCCOCCOCCOCCOCCOCCOCCOCCOCCOCCOCCOCCOCCOCCOCCOCCOCCOCCOCCOCCOCCOCCOCCOCCOCCOCCOCCOCCOCCOCCOCCOCCOCCOCCOCCOCCNC(=O)CCOCCOCCOCCOCCNC(=O)O[C@H]5CC[C@@]6(C)C(=CC[C@H]7[C@@H]8CC[C@H]([C@H](C)CCCC(C)C)[C@@]8(C)CC[C@@H]76)C5)CC4)ccc3c2n1CC(C)(CO)CO [Compound 4, (3beta)-cholest-5-en-3-yl {127-[4-(3-{4-amino-2-(ethoxymethyl)-1-[3-hydroxy-2-(hydroxymethyl)-2-methylpropyl]-1H-imidazo[4,5-c]quinolin-7-yl}propyl)piperazin-1-yl]-15,127-dioxo-3,6,9,12,19,22,25,28,31,34,37,40,43,46,49,52,55,58,61,64,67,70,73,76,79,82,85,88,91,94,97,100,103,106,109,112,115,118,121,124-tetracontaoxa-16-azaheptacosahect-1-yl}carbamate]
72 nM	2300 nM	CCOCc1nc2c(N)nc3cc(CCCN4CCN(C(=O)CCOCCOCCOCCOCCOCCOCCOCCOCCOCCOCCOCCOCCOCCOCCOCCOCCOCCOCCOCCOCCOCCOCCOCCOCCNC(=O)CCOCCOCCOCCOCCNC(=O)O[C@H]5CC[C@@]6(C)C(=CC[C@H]7[C@@H]8CC[C@H]([C@H](C)CCCC(C)C)[C@@]8(C)CC[C@@H]76)C5)CC4)ccc3c2n1CC(C)(CO)CO [Compound 5, (3beta)-cholest-5-en-3-yl {91-[4-(3-{4-amino-2-(ethoxymethyl)-1-[3-hydroxy-2-(hydroxymethyl)-2-methylpropyl]-1H-imidazo[4,5-c]quinolin-7-yl}propyl)piperazin-1-yl]-15,91-dioxo-3,6,9,12,19,22,25,28,31,34,37,40,43,46,49,52,55,58,61,64,67,70,73,76,79,82,85,88-octacosaoxa-16-azahennonacont-1-yl}carbamate]
78 nM	5080 nM	CCCCc1nc2c(N)nc3cc(CCCN4CCN(C(=O)CCOCCOCCOCCOCCOCCOCCOCCOCCOCCOCCOCCOCCNC(=O)CCOCCOCCOCCOCCNC(=O)O[C@H]5CC[C@@]6(C)C(=CC[C@H]7[C@@H]8CC[C@H]([C@H](C)CCCC(C)C)[C@@]8(C)CC[C@@H]76)C5)CC4)ccc3c2n1CC(C)(CO)CO [Compound 6, (3beta,20R)-cholest-5-en-3-yl {55-[4-(3-{4-amino-2-butyl-1-[3-hydroxy-2-(hydroxymethyl)-2-methylpropyl]-1H-imidazo[4,5-c]quinolin-7-yl}propyl)piperazin-1-yl]-15,55-dioxo-3,6,9,12,19,22,25,28,31,34,37,40,43,46,49,52-hexadecaoxa-16-azapentapentacont-1-yl}carbamate]
140 nM	14400 nM	CCCCc1nc2c(N)nc3cc(CCCN4CCN(CCCOCCOCCOCCOCCOCCOCCOCCOCCOCCOCCOCCOCCOCCOCCOCCOCCOCCOCCOCCOCCNC(=O)O[C@H]5CC[C@@]6(C)C(=CC[C@H]7[C@@H]8CC[C@H]([C@H](C)CCCC(C)C)[C@@]8(C)CC[C@@H]76)C5)CC4)ccc3c2n1CC(C)(CO)CO [Compound 7, (3beta)-cholest-5-en-3-yl {63-[4-(3-{4-amino-2-butyl-1-[3-hydroxy-2-(hydroxymethyl)-2-methylpropyl]-1H-imidazo[4,5-c]quinolin-7-yl}propyl)piperazin-1-yl]-3,6,9,12,15,18,21,24,27,30,33,36,39,42,45,48,51,54,57,60-icosaoxatrihexacont-1-yl}carbamate]
